Source: ChEMBL document CHEMBL1140201, “Insights into ligand-elicited activation of human constitutive androstane receptor based on novel agonists and three-dimensional quantitative structure-activity relationship” (J Med Chem, 2008)

Columns and labels:
Type in all cases: cell-based
[1] = target: T1, CAR (NR1I3) Asn165Ala mutant (Homo sapiens, UniProt Q14994, N165A); assay: Activation of human CAR Asn165Ala mutant expressed in human C3A cells at 10 uM after 24 hrs by GAL4-dependent luciferase reporter gene assay relative to control; details: C3A cells expressing human CAR Asn165Ala mutant, read-out: FC
[2] = target: T2, CAR (NR1I3) Ile164Ala mutant (Homo sapiens, UniProt Q14994, I164A); assay: Activation of human CAR Ile164Ala mutant expressed in human C3A cells at 10 uM after 24 hrs by GAL4-dependent luciferase reporter gene assay relative to control; details: C3A cells expressing human CAR Ile164Ala mutant, read-out: FC
[3] = target: T3, CAR (NR1I3) ligand-binding domain, wild type (Homo sapiens, UniProt Q14994); assay: Activation of human CAR-LBD expressed in human C3A cells at 10 uM after 24 hrs by GAL4-dependent luciferase reporter gene assay relative to control; details: C3A cells expressing human CAR-LBD, read-out: FC
T3 sequence (Q14994 whole entry): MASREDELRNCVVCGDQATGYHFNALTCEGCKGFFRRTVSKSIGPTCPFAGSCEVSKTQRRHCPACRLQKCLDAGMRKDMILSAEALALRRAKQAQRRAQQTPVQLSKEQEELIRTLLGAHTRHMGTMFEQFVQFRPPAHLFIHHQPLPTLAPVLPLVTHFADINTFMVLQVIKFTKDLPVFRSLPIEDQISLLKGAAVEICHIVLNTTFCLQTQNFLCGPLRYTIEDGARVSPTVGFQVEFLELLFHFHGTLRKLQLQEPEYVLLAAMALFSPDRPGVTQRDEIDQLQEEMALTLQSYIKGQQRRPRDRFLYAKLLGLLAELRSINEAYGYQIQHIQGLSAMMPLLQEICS

[4] = target: T4, CAR (NR1I3) Phe161Ala mutant (Homo sapiens, UniProt Q14994, F161A); assay: Activation of human CAR Phe161Ala mutant expressed in human C3A cells at 10 uM after 24 hrs by GAL4-dependent luciferase reporter gene assay relative to control; details: C3A cells expressing human CAR Phe161Ala mutant, read-out: FC
[5] = target: T5, CAR (NR1I3) His203Ala mutant (Homo sapiens, UniProt Q14994, H203A); assay: Activation of human CAR His203Ala mutant expressed in human C3A cells at 10 uM after 24 hrs by GAL4-dependent luciferase reporter gene assay relative to control; details: C3A cells expressing human CAR His203Ala mutant, read-out: FC
[6] = target: T2, CAR (NR1I3) Ile164Ala mutant; assay: Activation of human CAR Ile164Ala mutant expressed in human C3A cells at 4 uM after 24 hrs by GAL4-dependent luciferase reporter gene assay relative to control; details: C3A cells expressing human CAR Ile164Ala mutant, read-out: FC
[7] = target: T5, CAR (NR1I3) His203Ala mutant; assay: Activation of human CAR His203Ala mutant expressed in human C3A cells at 4 uM after 24 hrs by GAL4-dependent luciferase reporter gene assay relative to control; details: C3A cells expressing human CAR His203Ala mutant, read-out: FC
[8] = target: T1, CAR (NR1I3) Asn165Ala mutant; assay: Activation of human CAR Asn165Ala mutant expressed in human C3A cells at 4 uM after 24 hrs by GAL4-dependent luciferase reporter gene assay relative to control; details: C3A cells expressing human CAR Asn165Ala mutant, read-out: FC
[9] = target: T3, CAR (NR1I3) ligand-binding domain, wild type; assay: Activation of human CAR-LBD expressed in human C3A cells at 4 uM after 24 hrs by GAL4-dependent luciferase reporter gene assay relative to control; details: C3A cells expressing human CAR-LBD, read-out: FC
[10] = target: T4, CAR (NR1I3) Phe161Ala mutant; assay: Activation of human CAR Phe161Ala mutant expressed in human C3A cells at 4 uM after 24 hrs by GAL4-dependent luciferase reporter gene assay relative to control; details: C3A cells expressing human CAR Phe161Ala mutant, read-out: FC

T5 sequence (Q14994 whole entry H203A, the tested form may be a part): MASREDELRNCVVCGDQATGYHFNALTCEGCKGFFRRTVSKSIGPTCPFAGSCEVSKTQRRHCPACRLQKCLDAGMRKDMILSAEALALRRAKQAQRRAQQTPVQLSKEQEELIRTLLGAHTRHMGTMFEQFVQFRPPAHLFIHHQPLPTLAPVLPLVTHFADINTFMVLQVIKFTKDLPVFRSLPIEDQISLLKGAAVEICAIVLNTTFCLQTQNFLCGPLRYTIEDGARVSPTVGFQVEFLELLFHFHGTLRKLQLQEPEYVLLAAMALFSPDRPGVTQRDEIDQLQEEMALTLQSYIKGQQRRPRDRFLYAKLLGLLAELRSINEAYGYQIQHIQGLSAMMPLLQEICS
T1 sequence (Q14994 whole entry N165A, the tested form may be a part): as the sequence (Q14994 whole entry H203A, the tested form may be a part) above, with N165A, A203H counted along it
T4 sequence (Q14994 whole entry F161A, the tested form may be a part): as the sequence (Q14994 whole entry H203A, the tested form may be a part) above, with F161A, A203H counted along it
T2 sequence (Q14994 whole entry I164A, the tested form may be a part): as the sequence (Q14994 whole entry H203A, the tested form may be a part) above, with I164A, A203H counted along it

| fold induction at 24 h, 10 µM [1] | fold induction at 24 h, 10 µM [2] | fold induction at 24 h, 10 µM [3] | fold induction at 24 h, 10 µM [4] | fold induction at 24 h, 10 µM [5] | fold induction at 24 h, 4 µM [6] | fold induction at 24 h, 4 µM [7] | fold induction at 24 h, 4 µM [8] | fold induction at 24 h, 4 µM [9] | fold induction at 24 h, 4 µM [10] | Structure (SMILES) |
| --- | --- | --- | --- | --- | --- | --- | --- | --- | --- | --- |
| 2.2 | 1.49 | 2.7 | 1.01 | 1.9 |  |  |  |  |  | CCOc1ccccc1N1CCN(Cc2ccc(C)s2)CC1 |
| 1.19 | 2.89 | 2.51 | 3.36 | 1.92 |  |  |  |  |  | CCc1cc(Br)ccc1S(=O)(=O)NCc1ccccc1 |
| 1.23 | 1.08 | 2.39 | 0.96 | 2.06 |  |  |  |  |  | CCC(=O)NCC(=O)N1CCCN1C(=O)Cc1c(C)[nH]c2ccccc12 |
| 1.22 | 1.42 | 6.35 | 1.56 | 4.22 |  |  |  |  |  | CCN(c1ccccc1)S(=O)(=O)c1ccc(C(C)(C)CC)cc1 |
| 1.87 | 1.3 | 2.97 | 0.97 | 1.28 |  |  |  |  |  | CSCCN1C(=O)CS[C@@H]1c1ccc(Br)s1 |
| 0.99 | 2.33 | 2.03 | 1.12 | 2.26 |  |  |  |  |  | CN(C)c1ccc(NS(=O)(=O)c2ccc(Br)cc2)cc1 |
| 1.76 | 1.24 | 2.6 | 0.97 | 4.17 |  |  |  |  |  | CCCCCNC(=O)Nc1c(C)cccc1C(C)(C)C |
| 1.19 | 1.13 | 1.4 | 1.3 | 1.24 |  |  |  |  |  | O=C1CS[C@H](c2ccncc2)N1Cc1nc2ccccc2[nH]1 |
| 1.33 | 1.37 | 1.37 | 1.15 | 1.53 |  |  |  |  |  | Cc1ccc(NC(=O)NC2CCC2)cc1C |
| 1.01 | 1.06 | 1.32 | 1 | 1.18 |  |  |  |  |  | O=S(=O)(Nc1nc2c(s1)CCCC2)c1ccc(Br)s1 |
| 1.13 | 1.87 | 3.87 | 1.17 | 2.83 |  |  |  |  |  | COc1ccc(OC)c(CN2C(=O)CS[C@@H]2c2ccc(F)c(Br)c2)c1 |
| 1 | 1.55 | 7.92 | 0.94 | 2.62 |  |  |  |  |  | CCc1ccc(S(=O)(=O)Nc2ccccc2C(C)(C)C)cc1 |
| 1.17 | 2.26 | 1.63 | 0.92 | 3.21 |  |  |  |  |  | O=S(=O)(NCCSCc1ccccc1)c1ccc(Cl)cc1 |
| 2.75 | 4.57 | 4.47 | 3.62 | 10.1 |  |  |  |  |  | CCc1cc(Br)ccc1S(=O)(=O)Nc1ccccc1[C@@H](C)CC |
| 5.18 | 1.66 | 3.68 | 0.94 | 1.84 |  |  |  |  |  | CSc1ccccc1NS(=O)(=O)c1cc(Cl)sc1Cl |
| 0.81 | 1.48 | 4.88 | 1.52 | 1.03 |  |  |  |  |  | CCOc1ccccc1CCCNC(=O)Nc1c(CC)cccc1CC |
| 0.53 | 1.42 | 3.28 | 0.95 | 1.86 |  |  |  |  |  | O=S(=O)(NCC(c1ccccc1)c1ccccc1)c1cccs1 |
| 1.08 | 0.84 | 1.45 | 1.38 | 1.43 |  |  |  |  |  | Cc1cccc(NC(=O)N2CCN(c3cccc(C)c3)[C@H](C)C2)c1 |
| 2.07 | 6.61 | 4.09 | 4.4 | 5.44 |  |  |  |  |  | CCCCN(c1ccccc1)S(=O)(=O)c1cccc2ccccc12 |
| 1.1 | 4.14 | 5.5 | 1.08 | 3.29 |  |  |  |  |  | CCN(CC)c1ccc(NS(=O)(=O)c2ccc(Cl)cc2)c(C)c1 |
| 1.7 | 1.54 | 1.76 | 1.57 | 1.43 |  |  |  |  |  | O=S(=O)(NCc1csc2ccccc12)c1cccs1 |
| 1.82 | 1.56 | 3.8 | 1.22 | 3.68 |  |  |  |  |  | CCCc1ccc(S(=O)(=O)N(Cc2ccccc2)c2ccc(OC)cc2)cc1 |
| 1.05 | 6.66 | 5.22 | 1.3 | 1.52 |  |  |  |  |  | C[C@@H]1Cc2ccccc2N1S(=O)(=O)c1cccc2nsnc12 |
| 1.98 | 1.36 | 2.23 | 1.24 | 1.49 |  |  |  |  |  | Cn1ccnc1CN1CCCN(C(=O)Nc2ccc(F)c(F)c2F)CC1 |
| 1.14 | 2.86 | 2.95 | 1.21 | 2.16 |  |  |  |  |  | O=C(NCC1CCCCC1)N[C@H]1C[C@@H]1c1ccccc1 |
| 3.64 | 3.74 | 4.17 | 1.53 | 3.48 |  |  |  |  |  | Cc1cccc(NC(=O)N(Cc2ccccc2)Cc2ccccc2)c1 |
|  |  |  |  |  | 21.3 | 0.21 | 4.47 | 4.34 | 13.1 | Clc1ccccc1C(c1ccccc1)(c1ccccc1)n1ccnc1 [CLOTRIMAZOLE] |

| Structure (SMILES) | fold induction at 24 h, 10 µM [1] | fold induction at 24 h, 10 µM [2] | fold induction at 24 h, 10 µM [3] | fold induction at 24 h, 10 µM [4] | fold induction at 24 h, 10 µM [5] | fold induction at 24 h, 4 µM [6] | fold induction at 24 h, 4 µM [7] | fold induction at 24 h, 4 µM [8] | fold induction at 24 h, 4 µM [9] | fold induction at 24 h, 4 µM [10] |
| --- | --- | --- | --- | --- | --- | --- | --- | --- | --- | --- |
| CCc1cccc(NC(=O)N(CC)[C@H](C)Cc2ccc(OC)cc2)c1 | 1.72 | 1.32 | 1.86 | 0.92 | 1.88 |  |  |  |  |  |
| CC(C)c1ccc(OP(=O)(Oc2ccc(C(C)C)cc2)Oc2ccc(C(C)C)cc2)cc1 | 2.66 | 1.67 | 2.45 | 1.06 | 6.76 |  |  |  |  |  |
| O=P(Oc1ccccc1)(Oc1ccccc1)Oc1ccccc1 [TRIPHENYL PHOSPHATE] | 3.01 | 6.42 | 3.96 | 0.82 | 2.79 |  |  |  |  |  |
